This note sets out measurements from patent US20080004306A1, “Compositions and methods for modulating gated ion channels” (PainCeptor Pharma Corporation, priority 2006, published 2008).

The target of assay [1] is T1, hASIC1a (Homo sapiens, UniProt P78348).
T1 construct: expressed in transfected cells; host or cells: Xenopus laevis oocytes, nuclear microinjection of an expression vector such as pCDNA3
T1 sequence (P78348 1-528): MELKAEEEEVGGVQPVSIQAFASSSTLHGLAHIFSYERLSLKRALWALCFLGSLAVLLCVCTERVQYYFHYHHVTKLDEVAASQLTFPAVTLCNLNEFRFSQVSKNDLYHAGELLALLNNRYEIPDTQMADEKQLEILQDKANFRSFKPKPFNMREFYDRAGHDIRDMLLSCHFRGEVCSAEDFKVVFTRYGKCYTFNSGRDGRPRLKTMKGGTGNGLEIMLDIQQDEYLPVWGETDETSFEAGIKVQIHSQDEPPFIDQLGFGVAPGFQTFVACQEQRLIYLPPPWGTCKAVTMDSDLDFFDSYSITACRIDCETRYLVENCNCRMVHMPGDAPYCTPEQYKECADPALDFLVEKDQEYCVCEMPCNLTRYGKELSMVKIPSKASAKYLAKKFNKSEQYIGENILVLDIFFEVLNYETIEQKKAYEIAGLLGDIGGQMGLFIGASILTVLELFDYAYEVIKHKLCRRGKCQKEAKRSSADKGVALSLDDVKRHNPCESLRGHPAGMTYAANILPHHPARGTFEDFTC
Put plainly: Two-electrode voltage clamp in Xenopus laevis oocytes expressing gated ion channels (Xo, Example 3). To be noted: for inhibition at 50 µM: read-out: % inh. at 50 μM (Xo). It is filed as cell-based. Here is the method: Two-electrode voltage clamp electrophysiological assays in Xenopus laevis oocytes expressing gated ion channels are performed as follows:
Oocytes are surgically removed from adult Xenopus laevis and treated for 2 h at room temperature with 1 mg/ml type I collagenase (Sigma) in Barth's solution under mild agitation. Selected oocytes at stage IV-V are defolliculated manually before nuclear microinjection of 2.5-5 ng of a suitable expression vector, such as pCDNA3, comprising the nucleotide sequence encoding a gated ion channel subunit protein. In such an experiment, the oocytes express homomultimeric proton-gated ion channels on their surface. In an alternate experiment, one, two, three or more vectors comprising the coding sequences for distinct gated ion channel subunits are co-injected in the oocyte nuclei. In the latter case, oocytes express heteromultimeric proton-gated ion channels. […] Once impaled with the microelectrodes, oocytes are continuously superfused at 10-12 ml/min with a modified Ringer's solution containing 97 mM NaCl, 2 mM KCl, 1.8 mM CaCl2, and 10 mM HEPES brought to pH 7.4 with NaOH (Control Ringer). Test Ringer solution is prepared by replacing HEPES with MES and adjusting the pH to the desired acidic value. Compounds of the present invention are prepared in both the Control and Test Ringer solutions and applied to oocytes at room temperature through a computer-controlled switching valve system. […] Similarly, recordings can also be acquired in an automated multichannel oocytes system as the OpusExpress™ (Molecular Devices, Sunnyvale, USA).
(Two-electrode voltage clamp holds a large cell at a set potential and records current.)

Assay [2] deals with T1, hASIC1a. Put plainly: Whole cell patch clamp in HEK293 cells transfected with hASIC1a (Example 2). It is filed as cell-based. As to conditions: six point dose-response, whole cell patch clamp (FIG. 1B), read-out: IC50, inhibition of acid-induced hASIC1a activity. Here is the method:
Another example of an in vitro assessment method consists of using mammalian heterologous expression systems, which are known to the skilled in the art, and include a variety of mammalian cell lines such as COS, HEK, e.g., HEK293and/or CHO, cells. Cell lines are transfected with gated ion channel(s) and used to perform electrophysiology as follows:
All experiments are performed at room temperature (20-25° C.) in voltage clamp using conventional whole cell patch clamp methods (Neher, E., et al. (1978) Pfluegers Arch 375:219-228).
The amplifier used is the EPC-9 (HEKA-electronics, Lambrect, Germany) run by a Macintosh G3 computer via an ITC-16 interface. Experimental conditions are set with the Pulse-software accompanying the amplifier. […]
Coverslips with the cells are transferred to a 15 μl experimental chamber mounted on the stage of an inverted microscope (IMT-2, Olympus) supplied with Nomarski optics. […] The cells are held at a holding voltage of −60 mV and at the start of each experiment the current is continuously measured for 45 s to ensure a stable baseline. […] Current amplitudes are measured at the peak of the responses, and effect of the compounds is calculated as the amplitude at compound equilibrium divided by the amplitude of the current evoked by the pulse just before the compound is included. […]
(In general: In patch-clamp work, channel activity is measured electrically.)

Assay [3] has as its system thermal hyperalgesia from carrageenan-induced paw inflammation. Briefly: Carrageenan model, thermal hyperalgesia (Hargreaves' assay). It is filed as in vivo, rat. The procedure:
Acute inflammatory hyperalgesia is induced in rats by unilateral injection of […] of a 3% solution of 1-carrageenan into the plantar surface of the left hind paw 2-4 h prior to testing. Thermal nociceptive thresholds are determined according to the method described elsewhere (Hargreaves et al., 1988). Briefly, through the glass surface, a radiant heat source (8 V, 50 W projector bulb) is focused onto the plantar surface of the hind paw. The rat's paw-withdrawal latency to this stimulus is recorded to the nearest 0.1 s. Each latency score is an average of three trials, which are separated by at least 5 min. In all rats, both the injured and uninjured hind paws are similarly tested, allowing direct comparisons between inflamed and non-inflamed paws.

Setting [4] is: Xenopus laevis oocytes, two-electrode voltage clamp.
The mark [5] stands for this setting: Xenopus laevis oocytes, two-electrode voltage clamp, Table 1, read-out: IC50 (Xo).

In the case of `CCN1CCc2c(-c3ccccc3)cc3c(c2C1)NC(=O)C3SC` (stereo not drawn) [Compound 1], in assay [1] (setting [4]), the inhibition at 50 µM lay in the range of 25 to 45%.
On the same count and under the same terms, the same measure for `CCN1CCc2c(-c3ccccc3)cc3c(c2C1)NC(=O)C3` [Compound 2]: under 25%; for `CCN1CCc2c(-c3ccccc3)cc3c(c2C1)NC(=O)C3=CNC` [Compound 3]: under 25%.
The same measure, in the same setting: the figure for `CCN1CCc2c(-c3ccccc3)cc3c(c2C1)NC(=O)C3=CNCCO` [Compound 4] is under 25%.
A word on the IC50: it is the concentration that inhibits the measured activity by half. The term ED50 denotes the dose at which the effect has come halfway, by size or by number of responders. For `CCN1CCc2c(-c3ccccc3)cc3c(c2C1)NC(=O)C3=CN` [Compound 5], the inhibition at 50 µM in assay [1] (setting [4]) is over 50%. Moreover, the half-inhibitory concentration (IC50) was 10 µM in assay [1] (three point dose-response, acid-induced hASIC1a currents in Xenopus laevis oocytes (FIG. 1A), read-out: IC50, half maximal inhibition of the acid-evoked response in hASIC1a) and 15 µM in assay [2]. Also, the “effect on thermal hyperalgesia” value in assay [3] (75 mg/kg s.c., given 30 min prior to carrageenan, 2-4 hours post-carrageenan, versus control paw level) is reported as “completely reversed”. For the same compound, in assay [3] (Rattus norvegicus, sc, 30 min prior to carrageenan, tested 2, 3 and 4 h post carrageenan), the ED50 was about 50 mg/kg.
As for `CCN1CCc2c(-c3ccccc3)cc3c(N)n[nH]c3c2C1` [Compound 6], the IC50 in assay [1] (setting [5]) was over 50 µM.
On the same count and under the same terms, the same measure for `CCN1CCc2c(-c3cc(F)ccc3OC)cc3cc[nH]c3c2C1` [Compound 7]: over 50 µM; for `CCN1CCc2c(-c3cc(F)ccc3OC)cc3c(C=O)c[nH]c3c2C1` [Compound 8]: over 50 µM; for `CCN1CCc2c(-c3ccccc3)cc3cc[nH]c3c2C1` [Compound 9]: over 50 µM.
As for `CCN1CCc2c(-c3ccccc3)cc3c(C=O)c[nH]c3c2C1` [Compound 10], in assay [1] (setting [5]), the half-maximal inhibitory concentration (IC50) is over 50 µM.
Still for that read-out and setting: the figure for `CCN1CCc2c(-c3ccccc3)cc3c(C(N)=O)c[nH]c3c2C1` [Compound 11] is over 50 µM.
